Test results as given in patent US20070208068A1, “Aqueous Composition Comprising Thiazole Derivative” (R-TECH UENO, LTD. & Astellas Pharma Inc., priority 2004, published 2007).
≈ marks a conversion by molar mass, not a printed value. Each block holds one compound with its values, some of them ahead of it.

Experiments:
Assay type in all cases: physicochemical
[1] = Effect of sodium chloride on the solubility of Compound A, B and C (aqueous saturated solutions); details: for solubility: thermodynamic from solid; for Precipitation: aqueous saturated solution
Method: Sodium chloride was added to thus obtained aqueous saturated solution of Compound A, B, and C respectively in an amount to give 0.4% NaCl solution and the mixture was stirred.
Similarly, the saturated aqueous solution of Compound A-C was added with sodium chloride in an amount to give 0.85% solution, and precipitation and solubility were observed.

[2] = Effect of the additives on solubility of Compound C (aqueous saturated solution)
Method: To the saturated solution of Compound C prepared in the same manner as test example 1, glycerin in an amount to give 2.5% solution was added and the mixture was stirred. Similarly, mannitol in an amount to give 3.5% solution, boric acid in an amount to give 2% solution, potassium chloride in an amount to give 0.2% solution, disodium hydrogenphosphate in an amount to give 1% and sodium citrate in an amount to give 1% solution were added to the aqueous saturated solution of Compound C respectively. Precipitation and solubility, i.e. the change of the concentration of Compound C in the solution or supernatant were observed.

[3] = Effect of the additives on the stability of the aqueous solution comprising Compound C, stored at 40° C. in LDPE container
[4] = Effect of the additives on the stability of the aqueous solution comprising Compound D, stored at 40° C. in LDPE container; details: Compound D 0.3%
Method: Compound D was added with glycerin and distilled water and stirred to give clear aqueous solution (Conc. of Compound D: 0.3%, conc. of glycerin: 2.5%, about pH 6). Thus obtained solution was stored at 40° C. in the LDPE container and concentration of Compound D in the solution was observed over time.

[5] = aqueous saturated solution with 0.4% NaCl, saline or isotonic, conc. in solution or supernatant, NaCl 0.4%
[6] = aqueous saturated solution with 0.85% NaCl, saline or isotonic, conc. in solution or supernatant, NaCl 0.85%
[7] = distilled water (injection grade), aqueous saturated solution in distilled water, NaCl 0%, A about pH 7, B about pH 3 (HCl), C about pH 7 (HCl)
[8] = Boric acid 1.68% and borax 0.018%, 40° C., 1 month
[9] = Boric acid 1.68% and borax 0.018%, 40° C., 3 months
[10] = Boric acid 1.68% and borax 0.018%, 40° C., 6 months

% Solubulity ([1]; NaCl 0% (reference)): =100%
% Solubulity ([1]; NaCl 0.4%, vs 0% NaCl): 16%
% Solubulity ([1]; NaCl 0.85%, vs 0% NaCl): 8%
solubility [1, 5]: 1760 µg/mL (≈ 3.73 mM)
solubility [1, 6]: 860 µg/mL (≈ 1.82 mM)
Precipitation ([1]; conc. of NaCl 0%): no
Precipitation ([1]; conc. of NaCl 0.4%): yes
Precipitation ([1]; conc. of NaCl 0.85%): yes
solubility [1, 7]: 10700 µg/mL (≈ 22.8 mM)
B/A ratio ([2]; Boric acid 2%): 100%
Conc. of C/w additive (B) ([2]; Boric acid 2%): 11590 µg/mL
Precipitation ([2]; Boric acid 2%): no
B/A ratio ([2]; Glycerin 2.5%): 95%
Conc. of C/w additive (B) ([2]; Glycerin 2.5%): 10910 µg/mL
Precipitation ([2]; Glycerin 2.5%): no
B/A ratio ([2]; Mannitol 3.5%): 96%
Conc. of C/w additive (B) ([2]; Mannitol 3.5%): 11050 µg/mL
Precipitation ([2]; Mannitol 3.5%): no
B/A ratio ([2]; Potassium Chloride 0.2%): 29%
Conc. of C/w additive (B) ([2]; Potassium Chloride 0.2%): 3160 µg/mL
Precipitation ([2]; Potassium Chloride 0.2%): yes
solubility thermodynamic ([2]; aqueous saturated solution, pH 7, water, thermodynamic from solid, saturated solution before adding Mannitol 3.5%, read-out: Conc. of C w/o additive (A)): 11500 µg/mL (≈ 24.4 mM)
B/A ratio ([2]; disodium hydrogenphosphate 1%): 24%
Conc. of C/w additive (B) ([2]; disodium hydrogenphosphate 1%): 2540 µg/mL
Precipitation ([2]; disodium hydrogenphosphate 1%): yes
Conc. of C w/o additive (A) ([2]; saturated solution before adding Boric acid 2%): 11510 µg/mL
Conc. of C w/o additive (A) ([2]; saturated solution before adding Glycerin 2.5%): 11510 µg/mL
Conc. of C w/o additive (A) ([2]; saturated solution before adding Potassium Chloride 0.2%): 10730 µg/mL
Conc. of C w/o additive (A) ([2]; saturated solution before adding disodium hydrogenphosphate 1%): 10730 µg/mL
Conc. of C w/o additive (A) ([2]; saturated solution before adding sodium citrate 1%): 10730 µg/mL
B/A ratio ([2]; sodium citrate 1%): 4%
Conc. of C/w additive (B) ([2]; sodium citrate 1%): 480 µg/mL
Precipitation ([2]; sodium citrate 1%): yes
Change in Concentration of Compound C (vs the initial conc.) [3, 8]: 104.9%
Change in Concentration of Compound C (vs the initial conc.) [3, 9]: 106.2%
Change in Concentration of Compound C (vs the initial conc.) [3, 10]: 108.2%
Change in Concentration of Compound C (vs the initial conc.) ([3]; Boric acid 1.68% and borax 0.018%, 40° C., Initial): =100%
Change in Concentration of Compound C (vs the initial conc.) ([3]; Glycerin 2.5%, Compound C 0.3%, about pH 6, 40° C., 1 month): 105.4%
Change in Concentration of Compound C (vs the initial conc.) ([3]; Glycerin 2.5%, Compound C 0.3%, about pH 6, 40° C., 3 months): 110.6%
Change in Concentration of Compound C (vs the initial conc.) ([3]; Glycerin 2.5%, Compound C 0.3%, about pH 6, 40° C., 6 months): 112.3%
Change in Concentration of Compound C (vs the initial conc.) ([3]; Glycerin 2.5%, Compound C 0.3%, about pH 6, 40° C., Initial): =100%
Change in Concentration of Compound C (vs the initial conc.) ([3]; Mannitol 4.7%, 40° C., 1 month): 103.7%
Change in Concentration of Compound C (vs the initial conc.) ([3]; Mannitol 4.7%, 40° C., 3 months): 108.4%
Change in Concentration of Compound C (vs the initial conc.) ([3]; Mannitol 4.7%, 40° C., 6 months): 109.6%
Change in Concentration of Compound C (vs the initial conc.) ([3]; Mannitol 4.7%, 40° C., Initial): =100%
SMILES: CC(=O)Nc1nc(CCc2ccc(NC(=N)N)cc2)c(Cc2ccc(S(C)(=O)=O)cc2)s1 [Compound C]

% Solubulity ([1]; NaCl 0% (reference)): =100%
% Solubulity ([1]; NaCl 0.4%, vs 0% NaCl): 100%
% Solubulity ([1]; NaCl 0.85%, vs 0% NaCl): 100%
solubility [1, 5]: 1170 µg/mL (≈ 4.02 mM)
solubility [1, 6]: 1190 µg/mL (≈ 4.08 mM)
Precipitation ([1]; conc. of NaCl 0%): no
Precipitation ([1]; conc. of NaCl 0.4%): no
Precipitation ([1]; conc. of NaCl 0.85%): no
solubility [1, 7]: 1120 µg/mL (≈ 3.84 mM)
SMILES: CC(=O)Nc1nc(CCc2ccc(CON)cc2)cs1 [Compound B]

Change in Concentration of Compound D (vs the initial conc.) [4, 8]: 99.7%
Change in Concentration of Compound D (vs the initial conc.) [4, 9]: 105.8%
Change in Concentration of Compound D (vs the initial conc.) [4, 10]: 102.6%
Change in Concentration of Compound D (vs the initial conc.) ([4]; Boric acid 1.68% and borax 0.018%, 40° C., initial): =100%
Change in Concentration of Compound D (vs the initial conc.) ([4]; Glycerin 2.5%, about pH 6, 40° C., 1 month): 100.8%
Change in Concentration of Compound D (vs the initial conc.) ([4]; Glycerin 2.5%, about pH 6, 40° C., 3 months): 107.7%
Change in Concentration of Compound D (vs the initial conc.) ([4]; Glycerin 2.5%, about pH 6, 40° C., 6 months): 104.4%
Change in Concentration of Compound D (vs the initial conc.) ([4]; Glycerin 2.5%, about pH 6, 40° C., initial): =100%
SMILES: CC(=O)Nc1nc(CCc2ccc(NC(=N)N)cc2)c(Cc2ccc(S(C)(=O)=O)cc2)s1.Cl [Compound D]

% Solubulity ([1]; NaCl 0% (reference)): =100%
% Solubulity ([1]; NaCl 0.4%, vs 0% NaCl): 31%
% Solubulity ([1]; NaCl 0.85%, vs 0% NaCl): 20%
solubility [1, 5]: 1110 µg/mL (≈ 3.66 mM)
solubility [1, 6]: 690 µg/mL (≈ 2.27 mM)
Precipitation ([1]; conc. of NaCl 0%): no
Precipitation ([1]; conc. of NaCl 0.4%): yes
Precipitation ([1]; conc. of NaCl 0.85%): yes
solubility [1, 7]: 3550 µg/mL (≈ 11.7 mM)
SMILES: CC(=O)Nc1nc(CCc2ccc(NC(=N)N)cc2)cs1 [Compound A]
